Experimental findings from patent publication US7247440B2, “Method of screening preventives or remedies for obesity” (Takeda Pharmaceutical Company Limited, priority 2001, dated 2007) are described below.

This test has as its target T1, GPR7 (Homo sapiens, UniProt P48145).
T1 construct: expressed in transfected cells; host or cells: CHO dhfr- cells, plasmid pAKKO-Human GPR7 (high-expression clones 7, 8, 14)
T1 sequence (P48145 1-328): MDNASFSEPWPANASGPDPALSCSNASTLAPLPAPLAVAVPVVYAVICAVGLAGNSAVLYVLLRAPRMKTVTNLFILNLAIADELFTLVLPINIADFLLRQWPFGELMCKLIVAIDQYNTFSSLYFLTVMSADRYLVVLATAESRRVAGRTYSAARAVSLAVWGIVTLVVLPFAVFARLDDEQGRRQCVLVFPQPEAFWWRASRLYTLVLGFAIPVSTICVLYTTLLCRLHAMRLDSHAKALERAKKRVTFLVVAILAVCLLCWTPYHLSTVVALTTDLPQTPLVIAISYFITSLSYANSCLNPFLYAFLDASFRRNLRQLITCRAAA
Description: GTPγS-binding promoting activity on GPR7-expressed CHO cell membrane fraction. It counts as biochemical. The protocol:
The [^35S]-guanosine 5′-(γ-thio)triphosphate (GTPγS) binding promoting activity on the GPR7-expressed CHO cell membrane fraction was assayed by the following procedures.
The GPR7-expressed CHO cell membrane fraction prepared by the method described in EXAMPLE 2 was diluted with a membrane dilution buffer (50 mM Tris-hydrochloride buffer (pH 7.4), 5 mM MgCl2, 150 mM NaCl, 1 μM GDP and 0.1% BSA) to prepare a cell membrane fraction solution for assay having a protein level of 30 μg/ml. To 200 μl of the cell membrane fraction solution for assay were added 2 μl of 50 nM [^35S]-guanosine 5′-(γ-thio)triphosphate (NEN Co.) and 2 μl of a sample solution in DMSO, which was adjusted to an appropriate concentration. The resulting mixture was kept warm at 25° C. for an hour. The mixture was filtrated through a filter. After the filter was washed twice with 1.5 ml of a wash buffer (50 mM Tris-hydrochloride buffer (pH 7.4), 5 mM MgCl2, 1 mM EDTA and 0.1% BSA), radioactivity of the filter was measured with a liquid scintillation counter.
Following the procedures described in 1) above, hGPR8L (1-23) or hGPR8L (1-30) were given to the GPR7-expressed CHO cell membrane fraction in various concentrations to assay for the GTPγS-binding promoting activity. […]

Where a SMILES comes first, the peptide text is derived from it.

A word on the EC50: it is the concentration needed to bring the measured effect to its halfway point. Read a low EC50 as a more potent agent. As for `CSCC[C@H](NC(=O)[C@H](CC(C)C)NC(=O)[C@H](CC(C)C)NC(=O)CNC(=O)[C@H](C)NC(=O)[C@H](C)NC(=O)[C@H](CCCNC(=N)N)NC(=O)CNC(=O)[C@@H](NC(=O)[C@@H](NC(=O)[C@H](Cc1c[nH]cn1)NC(=O)[C@H](Cc1ccc(O)cc1)NC(=O)[C@H](CCCNC(=N)N)NC(=O)[C@@H]1CCCN1C(=O)[C@H](CO)NC(=O)[C@H](C)NC(=O)[C@@H](NC(=O)[C@@H](N)Cc1c[nH]cn1)C(C)C)[C@@H](C)O)C(C)C)C(=O)NCC(=O)N[C@@H](CC(C)C)C(=O)O` [hGPR8L(4–23)] (H-HVASPRYHTVGRAAGLLMGL-OH; C-terminus assumed), the EC50 was more than 10000 nM.

Turning to `CSCC[C@H](NC(=O)[C@H](CC(C)C)NC(=O)[C@H](CC(C)C)NC(=O)CNC(=O)[C@H](C)NC(=O)[C@H](C)NC(=O)[C@H](CCCNC(=N)N)NC(=O)CNC(=O)[C@@H](NC(=O)[C@@H](NC(=O)[C@H](Cc1c[nH]cn1)NC(=O)[C@H](Cc1ccc(O)cc1)NC(=O)[C@@H](N)CCCNC(=N)N)[C@@H](C)O)C(C)C)C(=O)NCC(=O)N[C@@H](CC(C)C)C(=O)O` [hGPR8L(9–23), Arg-Tyr-His-Thr-Val-Gly-Arg-Ala-Ala-Gly-Leu-Leu-Met-Gly-Leu] (H-RYHTVGRAAGLLMGL-OH; C-terminus assumed), the EC50 is more than 10000 nM.
